Assay results reported in US12421225B2, “Heteroaromatic amide derivative and medicament containing the same” (KAKEN PHARMACEUTICAL CO., LTD., priority 2018, dated 2025).
pIC50: −log10 of the molar value.

Experiments:
human Nav1.5 = human Nav1.5 (Homo sapiens (Human), UniProt Q14524); assay: Human Nav1.5 inhibitory activity evaluation (automated patch clamp QPatch16X, HEK293 cells stably expressing human Nav1.5); assay type: cell-based
Experimental: Test Example 2: Human Nav1.5 Inhibitory Activity Evaluation
A cell line in which human Nav1.5 was stably expressed in HEK293 cells was used. DMEM supplemeted with 15% fetal bovine serum, 500 μg/ml geneticin, 100 units/ml penicillin, 100 μg/ml streptomycin, 20 mM HEPES was used as culture medium under the conditions of 37° C. and 5% CO2 in T175 flasks to carry out culturing. When 60-80% confluence was reached, a cell suspension of about 0.5-5.0×10^6 cells/mL was prepared. The amount of current through human Nav1.5 was recorded using a fully automatic patch clamp device QPatch16X at room temperature. As the extracellular solution, 145 mM NaCl, 4 mM KCl, 1 mM MgCl2, 2 mM CaCl2, 10 mM Glucose, and 10 mM HEPES at pH 7.4 was used. As the intracellular solution, 135 mM CsF, ⅕ mM EGTA/CsOH, 10 mM HEPES, and 10 mM NaCl at pH 7.3 was used. The test compounds were dissolved in DMSO and diluted with the extracellular solution to attend the DMSO concentration of 0.1% at the time of assay.
The current response was obtained at a sampling frequency of 25 kHz, and noise was removed with a 3 kHz low-pass filter. The holding potential was −80 mV. Correction of the leakage current was carried out by applying a step pulse of −100 mV before the test pulse. In order to investigate human Nav1.5 inhibitory effect of the test compound, test pulses imitating the action potential of cardiomyocytes were continuously given 20 times. The test pulses were given before and after the test compound addition.
The inhibitory activity of the test compound was determined based on the amount of inward current generated by the 20th depolarization pulse, and the 50% inhibitory concentration (IC50) was calculated from the concentration-response curve.

human Nav1.7 = human Nav1.7 (Homo sapiens (Human), UniProt Q15858); assay: Human Nav1.7 inhibitory activity evaluation (automated patch clamp QPatch16X, HEK293A cells stably expressing human Nav1.7 and human Navβ1); assay type: cell-based
In short: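 QPatch16X whole-cell recordings at room temperature from HEK293A cells stably expressing human Nav1.7 with Navβ1, CsF-based internal solution, pH 7.4 external, 0.1% DMSO. From −100 mV holding, protocol included a 15 s hold at a potential inactivating ~30-40% of channels; IC50 from inward current at the second −10 mV pulse.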

[1] = HEK293 cells stably expressing human Nav1.5, automated patch clamp QPatch16X
[2] = HEK293A cells stably expressing human Nav1.7 and human Navβ1, automated patch clamp QPatch16X

Chain of human Nav1.7 (Q15858 whole entry): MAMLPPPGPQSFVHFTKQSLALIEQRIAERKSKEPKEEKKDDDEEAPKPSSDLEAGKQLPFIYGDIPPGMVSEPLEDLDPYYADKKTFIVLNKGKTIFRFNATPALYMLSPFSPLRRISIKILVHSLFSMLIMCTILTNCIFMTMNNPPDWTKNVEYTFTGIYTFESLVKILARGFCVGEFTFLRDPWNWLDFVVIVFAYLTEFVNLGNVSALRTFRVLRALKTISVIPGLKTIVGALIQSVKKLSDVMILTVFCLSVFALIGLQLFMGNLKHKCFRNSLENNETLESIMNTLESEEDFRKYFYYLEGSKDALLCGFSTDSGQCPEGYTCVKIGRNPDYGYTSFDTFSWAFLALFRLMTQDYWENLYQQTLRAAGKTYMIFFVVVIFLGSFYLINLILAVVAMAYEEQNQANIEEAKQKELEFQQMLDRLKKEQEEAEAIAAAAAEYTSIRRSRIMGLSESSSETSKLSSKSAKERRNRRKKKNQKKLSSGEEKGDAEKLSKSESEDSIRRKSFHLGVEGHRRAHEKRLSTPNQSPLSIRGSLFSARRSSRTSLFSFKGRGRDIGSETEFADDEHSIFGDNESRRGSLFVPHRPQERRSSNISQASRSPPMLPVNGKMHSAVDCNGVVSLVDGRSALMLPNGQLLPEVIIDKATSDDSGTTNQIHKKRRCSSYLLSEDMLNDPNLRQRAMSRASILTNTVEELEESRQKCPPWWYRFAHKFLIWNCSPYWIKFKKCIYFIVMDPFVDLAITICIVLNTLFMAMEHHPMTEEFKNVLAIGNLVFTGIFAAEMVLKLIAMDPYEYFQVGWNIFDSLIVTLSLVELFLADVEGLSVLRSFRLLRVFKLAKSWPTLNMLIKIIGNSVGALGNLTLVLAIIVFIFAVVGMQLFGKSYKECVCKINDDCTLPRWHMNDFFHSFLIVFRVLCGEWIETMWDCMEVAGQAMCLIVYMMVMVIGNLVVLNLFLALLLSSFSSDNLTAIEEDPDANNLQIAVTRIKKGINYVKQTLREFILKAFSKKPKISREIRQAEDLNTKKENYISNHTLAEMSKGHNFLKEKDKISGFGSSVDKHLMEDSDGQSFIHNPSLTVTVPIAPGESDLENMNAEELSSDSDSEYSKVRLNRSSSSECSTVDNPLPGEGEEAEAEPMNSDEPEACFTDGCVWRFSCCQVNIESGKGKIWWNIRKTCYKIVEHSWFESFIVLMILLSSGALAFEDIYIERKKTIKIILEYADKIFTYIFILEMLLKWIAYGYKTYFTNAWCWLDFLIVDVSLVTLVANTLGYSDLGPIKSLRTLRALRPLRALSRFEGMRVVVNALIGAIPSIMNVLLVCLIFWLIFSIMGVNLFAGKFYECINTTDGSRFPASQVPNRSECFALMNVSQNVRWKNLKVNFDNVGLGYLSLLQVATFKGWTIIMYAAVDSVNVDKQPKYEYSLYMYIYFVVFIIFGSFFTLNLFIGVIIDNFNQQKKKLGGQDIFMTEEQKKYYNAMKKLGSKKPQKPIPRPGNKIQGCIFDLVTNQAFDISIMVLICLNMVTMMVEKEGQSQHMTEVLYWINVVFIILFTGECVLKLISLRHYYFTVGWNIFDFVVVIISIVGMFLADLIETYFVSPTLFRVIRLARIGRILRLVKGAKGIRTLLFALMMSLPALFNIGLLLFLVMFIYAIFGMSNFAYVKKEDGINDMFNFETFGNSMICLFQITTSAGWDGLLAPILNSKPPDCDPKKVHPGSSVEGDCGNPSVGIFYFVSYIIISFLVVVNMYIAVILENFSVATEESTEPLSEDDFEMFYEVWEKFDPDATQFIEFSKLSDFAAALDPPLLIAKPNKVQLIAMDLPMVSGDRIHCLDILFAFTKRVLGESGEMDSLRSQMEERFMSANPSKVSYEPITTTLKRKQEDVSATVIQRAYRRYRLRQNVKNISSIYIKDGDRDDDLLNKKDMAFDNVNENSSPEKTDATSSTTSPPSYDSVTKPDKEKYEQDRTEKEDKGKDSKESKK
Chain of human Nav1.7 (Q07699 19-218 partner): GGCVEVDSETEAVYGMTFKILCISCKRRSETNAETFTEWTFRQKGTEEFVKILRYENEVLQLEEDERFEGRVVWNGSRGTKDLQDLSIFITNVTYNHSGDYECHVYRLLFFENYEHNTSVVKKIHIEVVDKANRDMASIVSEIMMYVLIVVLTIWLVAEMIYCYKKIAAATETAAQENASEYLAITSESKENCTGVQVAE
Chain of human Nav1.5 (Q14524 whole entry): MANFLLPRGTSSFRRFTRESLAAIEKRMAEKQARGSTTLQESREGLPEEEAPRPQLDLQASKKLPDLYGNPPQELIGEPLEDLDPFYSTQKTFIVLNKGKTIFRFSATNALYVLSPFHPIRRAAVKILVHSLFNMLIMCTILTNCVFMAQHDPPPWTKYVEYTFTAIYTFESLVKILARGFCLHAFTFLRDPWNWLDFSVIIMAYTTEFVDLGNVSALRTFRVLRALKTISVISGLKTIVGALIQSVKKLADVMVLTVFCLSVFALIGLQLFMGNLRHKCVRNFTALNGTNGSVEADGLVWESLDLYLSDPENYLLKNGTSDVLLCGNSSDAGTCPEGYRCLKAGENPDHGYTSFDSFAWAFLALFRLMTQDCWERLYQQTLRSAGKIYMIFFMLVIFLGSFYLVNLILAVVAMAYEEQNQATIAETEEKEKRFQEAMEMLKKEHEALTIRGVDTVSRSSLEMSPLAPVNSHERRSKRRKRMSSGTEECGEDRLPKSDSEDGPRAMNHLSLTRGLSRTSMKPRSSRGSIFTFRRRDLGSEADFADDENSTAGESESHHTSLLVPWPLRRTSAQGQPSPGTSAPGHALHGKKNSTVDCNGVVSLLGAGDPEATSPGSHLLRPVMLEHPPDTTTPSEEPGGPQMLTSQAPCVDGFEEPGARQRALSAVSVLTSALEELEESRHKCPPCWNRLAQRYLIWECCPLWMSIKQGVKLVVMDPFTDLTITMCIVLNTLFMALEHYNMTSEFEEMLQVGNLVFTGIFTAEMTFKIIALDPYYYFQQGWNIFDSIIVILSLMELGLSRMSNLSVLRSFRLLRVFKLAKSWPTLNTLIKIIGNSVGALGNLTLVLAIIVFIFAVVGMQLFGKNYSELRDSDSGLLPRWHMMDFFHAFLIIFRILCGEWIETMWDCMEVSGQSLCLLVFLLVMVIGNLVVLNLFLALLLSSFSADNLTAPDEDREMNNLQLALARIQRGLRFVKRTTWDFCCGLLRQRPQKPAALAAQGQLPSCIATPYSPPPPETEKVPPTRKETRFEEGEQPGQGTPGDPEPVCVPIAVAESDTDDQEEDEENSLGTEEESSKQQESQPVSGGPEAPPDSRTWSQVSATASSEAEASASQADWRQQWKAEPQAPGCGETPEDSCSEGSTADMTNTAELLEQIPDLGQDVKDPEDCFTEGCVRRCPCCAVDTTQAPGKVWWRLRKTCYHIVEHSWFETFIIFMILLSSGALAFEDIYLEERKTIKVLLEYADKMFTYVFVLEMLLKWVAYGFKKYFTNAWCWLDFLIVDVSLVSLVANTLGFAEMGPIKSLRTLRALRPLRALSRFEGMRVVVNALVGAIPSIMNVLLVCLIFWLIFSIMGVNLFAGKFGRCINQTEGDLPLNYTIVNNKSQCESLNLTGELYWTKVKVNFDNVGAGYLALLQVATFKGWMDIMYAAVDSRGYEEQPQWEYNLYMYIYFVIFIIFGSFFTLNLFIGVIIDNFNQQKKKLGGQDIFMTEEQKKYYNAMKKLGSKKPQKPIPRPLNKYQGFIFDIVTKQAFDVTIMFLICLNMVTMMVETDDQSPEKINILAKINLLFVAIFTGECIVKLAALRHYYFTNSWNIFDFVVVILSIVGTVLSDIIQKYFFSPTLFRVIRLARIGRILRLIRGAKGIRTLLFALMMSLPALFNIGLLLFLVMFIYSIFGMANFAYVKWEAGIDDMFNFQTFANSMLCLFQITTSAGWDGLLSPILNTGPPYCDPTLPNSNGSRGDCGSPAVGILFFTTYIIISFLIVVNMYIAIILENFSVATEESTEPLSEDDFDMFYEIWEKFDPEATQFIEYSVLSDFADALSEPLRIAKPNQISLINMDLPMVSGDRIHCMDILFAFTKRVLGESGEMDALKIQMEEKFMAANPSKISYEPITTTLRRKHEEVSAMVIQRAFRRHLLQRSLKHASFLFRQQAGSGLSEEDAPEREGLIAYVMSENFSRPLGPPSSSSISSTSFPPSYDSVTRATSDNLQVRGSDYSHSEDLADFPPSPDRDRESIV

Row | pIC50 (human Nav1.7; [2]) | pIC50 (human Nav1.7; human Nav1.7, automated patch clamp) | Compound | pIC50 (human Nav1.5; [1]) | pIC50 (human Nav1.5; human Nav1.5, automated patch clamp)
1 | > 5.00 | – | O=C(N[C@H]1COc2ccc(Cl)cc2C1)c1cn2c(n1)CCC(OCC(F)(F)F)C2 (single isomer, unassigned) [39 (isomer A)] | 5.52 to 6.00 | –
2 | > 5.00 | – | O=C(N[C@H]1COc2ccc(Cl)cc2C1)c1cn2c(n1)CCC(OCC(F)(F)F)C2 (single isomer, unassigned) [39 (isomer B)] | ≤ 5.52 | –
3 | > 6.00 | – | CCCC1CCn2nc(C(=O)N[C@H]3COc4ccc(C#N)cc4C3)cc2O1 (single isomer, unassigned) [95 (isomer A)] | ≤ 5.52 | –
4 | > 5.00 | – | CCCOCC1CCn2nc(C(=O)N[C@H]3COc4ccc(C#N)cc4C3)cc2O1 (single isomer, unassigned) [101 (isomer B)] | ≤ 5.52 | –
5 | > 5.00 | – | N#Cc1ccc2c(c1)C[C@@H](NC(=O)c1cc3n(n1)CCC(COCC1CC1)O3)CO2 (single isomer, unassigned) [103 (isomer B)] | ≤ 5.52 | –
6 | > 6.00 | – | O=C(N[C@H]1COc2ccc(CC(F)F)cc2C1)c1cc2n(n1)CCC(COCC1CC1)O2 (single isomer, unassigned) [109 (isomer A)] | 5.52 to 6.00 | –
7 | > 5.00 | – | O=C(N[C@H]1COc2ccc(CC(F)F)cc2C1)c1cc2n(n1)CCC(COCC1CC1)O2 (single isomer, unassigned) [109 (isomer B)] | ≤ 5.52 | –
8 | > 6.00 | – | O=C(N[C@H]1COc2ccc(-c3ccccn3)cc2C1)c1cc2n(n1)CCC(COCC1CC1)O2 (single isomer, unassigned) [111 (isomer A)] | 5.52 to 6.00 | –
9 | > 6.00 | – | CC1(COCC2CCn3nc(C(=O)N[C@H]4COc5ccc(C#N)cc5C4)cc3O2)CC1 (single isomer, unassigned) [113 (isomer A)] | 5.52 to 6.00 | –
10 | > 6.00 | – | CC1(COCC2CCn3nc(C(=O)N[C@H]4COc5ccc(C#N)cc5C4)cc3O2)CC1 (single isomer, unassigned) [113 (isomer B)] | > 6.00 | –
11 | > 6.00 | – | CCOCC1CCn2nc(C(=O)N[C@H]3COc4ccc(-c5ccccn5)cc4C3)cc2O1 (single isomer, unassigned) [124 (isomer A)] | ≤ 5.52 | –
12 | > 5.00 | – | CCOCC1CCn2nc(C(=O)N[C@H]3COc4ccc(-c5ccccn5)cc4C3)cc2O1 (single isomer, unassigned) [124 (isomer B)] | ≤ 5.52 | –
13 | > 6.00 | – | O=C(N[C@H]1COc2ccc(CC(F)F)cc2C1)c1cc2n(n1)CCC(COCC(F)(F)F)O2 (single isomer, unassigned) [127 (isomer A)] | ≤ 5.52 | –
14 | > 6.00 | – | O=C(N[C@H]1COc2ccc(COCC(F)(F)F)cc2C1)c1cc2n(n1)CCC(COCC(F)(F)F)O2 (single isomer, unassigned) [129 (isomer B)] | 5.52 to 6.00 | –
15 | > 6.00 | – | O=C(N[C@H]1COc2ccc(-c3ccccn3)cc2C1)c1cc2n(n1)CCC(COCC(F)(F)F)O2 (single isomer, unassigned) [131 (isomer A)] | 5.52 to 6.00 | –
16 | > 5.00 | – | O=C(N[C@H]1COc2ccc(-c3ccccn3)cc2C1)c1cc2n(n1)CCC(COCC(F)(F)F)O2 (single isomer, unassigned) [131 (isomer B)] | ≤ 5.52 | –
17 | > 5.00 | – | N#Cc1ccc2c(c1)C[C@@H](NC(=O)c1cc3n(n1)CCC(COC(F)(F)F)O3)CO2 (single isomer, unassigned) [134 (isomer B)] | ≤ 5.52 | –
18 | > 6.00 | – | O=C(N[C@H]1COc2ccc(CC(F)F)cc2C1)c1cc2n(n1)CCC(COC(F)(F)F)O2 (single isomer, unassigned) [136 (isomer A)] | > 6.00 | –
19 | > 6.00 | – | O=C(N[C@H]1COc2ccc(CC(F)F)cc2C1)c1cc2n(n1)CCC(COC(F)(F)F)O2 (single isomer, unassigned) [136 (isomer B)] | 5.52 to 6.00 | –
20 | – | > 6.00 | O=C(N[C@H]1COc2ccc(COCC(F)(F)F)cc2C1)c1cc2n(n1)CCC(COC(F)F)O2 (single isomer, unassigned) [140 (isomer A)] | – | ≤ 5.52
